Series [1] relates to TAT transactivation of the HIV-1 LTR promoter (TAT-TRS). In words: cells. The format is cell-based. To be noted: Human immunodeficiency virus 1, COS-7, 48 h, read-out: SEAP EC50.
The test system of a further series is COS-7 cells. In words: MTT cytotoxicity in COS-7 cells (run with SEAP). The format is cell-based, green monkey. The following applies: Chlorocebus sabaeus.
A further series concerns A549 (lung carcinoma). The series can be described thus: MTS cell viability assay, A549. The format is cell-based. (Tetrazolium dyes change colour on reduction, which living cells bring about.)
The test system of series [2] is HeLa (cervical adenocarcinoma). The series can be described thus: MTS cell viability assay, HeLa. To be noted: read-out: HeLa IC50. The series is classed as cell-based.
The subject of the next series is MCP-1. The series can be described thus: MCP-1 protein production in TNF-α-treated primary human keratinocytes. The format is cell-based. To be noted: Keratinocyte, read-out: MCP-1 IC50.
The test system of series [3] is H-69 small cell lung cancer cells. The following applies: cited from earlier work.
Series [4] has as its system apoptosis in cultured cells (DNA fragmentation). In words: TiterTACS DNA fragmentation apoptosis assay. The series is classed as cell-based. To be noted: TiterTACS apoptosis detection.
For a further series, the system named is VEGF. The series can be described thus: ELISA VEGF assay (DFO-induced hypoxia). The series is classed as cell-based. To be noted: Homo sapiens, VEGF released into media, ELISA; read-out: VEGF IC50. (In general: In an ELISA, binding on a coated surface is turned into a signal by an enzyme label.)
In series [5] the test system is NSCLC cell line panel (9 cell lines). To be noted: NSCLC (9 cell lines), 48 hours, SRB.
Series [6] concerns Colon Cancer cell line panel (6 cell lines). The following applies: Colon Cancer (6 cell lines), 48 hours, SRB.
In series [7] the test system is Breast Cancer cell line panel (8 cell lines). To be noted: Breast Cancer (8 cell lines), 48 hours, SRB.
The test system of series [8] is Ovarian Cancer cell line panel (6 cell lines). The following applies: Ovarian Cancer (6 cell lines), 48 hours, SRB.
Series [9] has as its system Leukemia cell line panel (6 cell lines). To be noted: Leukemia (6 cell lines), 48 hours, SRB.
The subject of series [10] is Renal Cancer cell line panel (8 cell lines). The following applies: Renal Cancer (8 cell lines), 48 hours, SRB.
Series [11] relates to Melanoma cell line panel (8 cell lines). The following applies: Melanoma (8 cell lines), 48 hours, SRB.
Series [12] concerns Prostate cell line panel (1 cell line). The following applies: Prostate (1 cell line), 48 hours, SRB.
For series [13], the system named is CNS cell line panel (5 cell lines). To be noted: CNS (5 cell lines), 48 hours, SRB.
Series [14] concerns Caco-2 cell monolayers. To be noted: for Mass balance mean A to B: 50 μM.
In series [15] the test system is NSCLC cell line panel (9 cell lines). The series can be described thus: cells. To be noted: Homo sapiens, 48 h, read-out: LC50.
For series [16], the system named is Colon Cancer cell line panel (6 cell lines). The series can be described thus: cells. To be noted: Homo sapiens, 48 h, read-out: LC50.
In series [17] the test system is Breast Cancer cell line panel (8 cell lines). In words: cells. The following applies: Homo sapiens, 48 h, read-out: LC50.
Series [18] has as its system Ovarian Cancer cell line panel (6 cell lines). The series can be described thus: cells. The following applies: Homo sapiens, 48 h, read-out: LC50.
Series [19] concerns Leukemia cell line panel (6 cell lines). The series can be described thus: cells. To be noted: Homo sapiens, 48 h, read-out: LC50.
The test system of series [20] is Renal Cancer cell line panel (8 cell lines). In words: cells. To be noted: Homo sapiens, 48 h, read-out: LC50.
Series [21] concerns Melanoma cell line panel (8 cell lines). In words: cells. The following applies: Homo sapiens, 48 h, read-out: LC50.
The subject of series [22] is Prostate cell line panel (1 cell line). In words: cells. To be noted: Homo sapiens, 48 h, read-out: LC50.
Series [23] has as its system CNS cell line panel (5 cell lines). The series can be described thus: cells. To be noted: Homo sapiens, 48 h, read-out: LC50.
Another series is described as follows: in vitro. The following applies: human; for Papp A→B at 90 min, 50 μM: Caco-2, pH 7.4, Papp mean A to B.
A short description of series [24]: Non-specific binding to 24-well assay plate without cells. The following applies: single well of a 24-well assay plate without cells.
The conditions of series [25]: cited from earlier work.
Series [26] is described as follows: Caco-2 monolayer permeability study. The following applies: human, Caco-2, pH 7.4, Papp mean A to B, Caco-2, 5 μM, 90 minutes, pH 7.4. (In general: Caco-2 monolayers are a common model of the intestinal barrier.)
The subject of series [27] is Caco-2 cell monolayers. The series can be described thus: Caco-2 monolayer permeability study. To be noted: Caco-2, 5 μM, 90 minutes.
Series [28] deals with Caco-2 cell monolayers. The following applies: Caco-2 test system, historical values; cited from earlier work.
Setting [29] is: Homo sapiens, A549, read-out: A549 IC50.
[30] abbreviates: MTT assay, COS-7 test cells of the SEAP assay, read-out: COS-7 IC50.
Where [31] appears, read: TNF-α-treated PHK, MCP-1 protein production, ELISA.
The mark [32] stands for this setting: human, Caco-2, 90 min, 1 μM, pH 7.4.

Structures can show the parent of a compound that is named as a salt. Where two headings read alike, the source gives them in different places.

In general, melting point refers to the temperature of the solid-liquid transition. The term EC50 denotes the concentration needed to bring the measured effect to its halfway point. Usually IC50 stands for the concentration needed to halve the response being measured. For orientation: Papp A→B means how fast a substance crosses the layer from the apical side. Low values mean poor permeation, high ones ready permeation. The Papp B→A is how fast a substance crosses the layer from the basolateral side. The efflux ratio is the permeability from basolateral to apical divided by that in the opposite direction, in the common usage.

For `Cc1nc(COc2ccc(CCCCc3ccc(OCc4csc(C)n4)c(OCc4csc(C)n4)c3)cc2OCc2csc(C)n2)cs1` (as salt: hydrochloride) [Compound G, 1,4-bis{3,4-bis(2-methyl-thiazol-4-yl-methoxy)phenyl}-butane tetrakis-hydrochloride salt], the melting point fell in the range of 96 to 98 °C.
For `COc1ccc(CCCCc2ccc(OC)c(OC)c2)cc1OC` [Compound A, 1,4-bis-(3,4-methoxyphenyl) butane], the EC50 in series [1] was over 100 µM. The IC50 is over 100 µM in the series on COS-7 cells (COS-7, read-out: COS-7 IC50); over 100 µM in the series with A549 (lung carcinoma) (setting [29]); over 100 µM in [2] (Homo sapiens, HeLa); over 100 µM in the series on MCP-1.
In the case of `Oc1ccc(CCCCc2ccc(O)c(O)c2)cc1O` [Compound B, 1,4-bis-(3,4-hydroxyphenyl) butane], the melting point was 140 to 142 °C. In series [3], the “potency relative to NDGA as proliferative inhibitor” value was 10 times.
The compound `CCOc1ccc(CCCCc2ccc(OCC)c(OCC)c2)cc1OCC` [Compound C, 1,4-bis-(3,4-ethoxyphenyl) butane] had a melting point of 113 to 115 °C. In addition, the EC50 in series [1] was over 100 µM. Also, the IC50 in the series on COS-7 cells (setting [30]) was over 100 µM. Besides, the IC50 with A549 (lung carcinoma) (Homo sapiens, A549, MTS assay, read-out: A549 IC50) was over 100 µM. Moreover, the IC50 in series [2] (Homo sapiens, HeLa, MTS assay) was over 100 µM. The IC50 in the series with MCP-1 (setting [31]) is over 100 µM.
`c1cc(OCCCN2CCCCC2)c(OCCCN2CCCCC2)cc1CCCCc1ccc(OCCCN2CCCCC2)c(OCCCN2CCCCC2)c1` [Compound D, 1,4-bis{3,4-bis[3-(piperidin-1-yl)propoxy]phenyl}-butane]: the EC50 in [1] is 0.7 to 0.8 µM. For the same compound, the IC50 was 0.8 to 0.9 µM with COS-7 cells (setting [30]); 1 to 2 µM in the series on A549 (lung carcinoma) (MTS assay, read-out: A549 IC50); 5 to 6 µM in series [2] (Homo sapiens, HeLa, MTS assay); about 4 µM with VEGF; 3 µM in the series on MCP-1 (setting [31]). In series [4], the DNA fragmentation result is given as “Positive”. Besides, the “Mean Growth Percent at 10 μM” value is reported as 62.77% in [5] (10 μM); 40.49% in [6] (10 μM); 59.72% in series [7] (10 μM); 66.18% in series [8] (10 μM); 12.31% in series [9] (10 μM); 82.54% in series [10] (10 μM). The “Mean Growth Percent at 10 μM” value in [11] (10 μM) was 16.46%; in series [12] (10 μM), 2.84%; in [13] (10 μM), 78.88%. Further, the TGI in series [5] turned out to be 7.31E−6; in [6] it was 6.45E−6; in [7] it was 2.11E−5; in series [8], 1.46E−5; in [9], 4.28E−6; in [10] it was 1.70E−5. Further, the TGI in [11] came to 7.74E−6; in series [12], 2.76E−5; in series [13] it was 4.13E−6. For the same compound, in the series with Caco-2 cell monolayers [14] (Caco-2), the BCS permeability class entry is “moderate-to-high”. Moreover, the “Papp A to B” value in the series with Caco-2 cell monolayers [14] (setting [32]) amounted to 14 ×10⁻⁶ cm/s. For the same compound, the “Papp B to A” value with Caco-2 cell monolayers [14] (setting [32]) is 2.51 ×10⁻⁶ cm/s. For the same compound, in the series with Caco-2 cell monolayers [14] (setting [32]), the “Polarization Ratio [B-A/A-B]” value was 0.18. The CC50 in series [15] stood at 28.4 µM; in series [16], 22.8 µM; in series [17], 30.8 µM; in series [18] it was 35.3 µM; in [19] it was 13.4 µM; in series [20] it was 37 µM. Also, the CC50 was found to be 15.9 µM in series [21], 53.9 µM in series [22] and 11 µM in series [23]. The compound further yielded a Papp A→B at 90 min, 1 μM in “in vitro” (Caco-2, pH 7.4, Papp A to B) of 13.8 ×10⁻⁶ cm/s. Moreover, the Papp B→A at 90 min, 1 μM in “in vitro” (Caco-2, pH 7.4, Papp B to A) worked out at 2.35 ×10⁻⁶ cm/s. Also, in “in vitro” (Caco-2, pH 7.4, Polarization Ratio [B-A/A-B]), the efflux ratio at 90 min, 1 μM lay within 0.1 to 0.2. In addition, the recovery at 90 min, 1 μM in series [24] amounted to 35%.
For the compound `c1cc(OCCCN2CCCCC2)c(OCCCN2CCCCC2)cc1CCCCc1ccc(OCCCN2CCCCC2)c(OCCCN2CCCCC2)c1` [Compound E, 1,4-bis{3,4-bis[3-(piperidin-1-yl)propoxy]phenyl}-butane tetrakis-hydrochloride salt], the IC50 is 9 µM in the series on A549 (lung carcinoma) (MTS assay, read-out: A549 IC50) and 5 to 10 µM in series [2] (MTS assay).
Consider `CN1CCN(CCOc2ccc(CCCCc3ccc(OCCN4CCN(C)CC4)c(OCCN4CCN(C)CC4)c3)cc2OCCN2CCN(C)CC2)CC1` [Compound F, 1,4-bis{3,4-bis[2-(1-methyl-piperazin-4-yl)-ethoxy]phenyl}-butane], for which the IC50 with A549 (lung carcinoma) (setting [29]) is over 100 µM; in [2] (Homo sapiens, HeLa), over 100 µM.
With `Cc1nc(COc2ccc(CCCCc3ccc(OCc4csc(C)n4)c(OCc4csc(C)n4)c3)cc2OCc2csc(C)n2)cs1` [Compound G, 1,4-bis{3,4-bis(2-methyl-thiazol-4-yl-methoxy)phenyl}-butane tetrakis-hydrochloride salt], the IC50 with A549 (lung carcinoma) (setting [29]) was over 100 µM; in [2] (Homo sapiens, HeLa), over 100 µM.
Regarding `COc1ccc(C[C@@H](C)[C@@H](C)Cc2ccc(OC)c(OC)c2)cc1OC` [Compound M4N, (tetra-O-methyl)nordihydroguaiaretic acid], the water solubility result in [25] is recorded as “poor”.
The compound `C[C@H]1O[C@@H](O[C@H]2[C@@H](O)C[C@H](O[C@H]3[C@@H](O)C[C@H](O[C@H]4CC[C@@]5(C)[C@H](CC[C@@H]6[C@@H]5C[C@@H](O)[C@]5(C)[C@@H](C7=CC(=O)OC7)CC[C@]65O)C4)O[C@@H]3C)O[C@@H]2C)C[C@H](O)[C@@H]1O` [digoxin, reference compound] returned a Papp A→B at 90 min, 5 μM in series [26] of 2.28 ×10⁻⁶ cm/s. For the same compound, in the series on Caco-2 cell monolayers [27], the “Mass balance mean A to B” value was determined as 73%, the “Mass balance mean B to A” value is 79% and the “Polarization Ratio mean (B-A/A-B)” value was 5.4. Further, the “Papp mean B to A” value with Caco-2 cell monolayers [27] (pH 7.4) amounted to 12.4 ×10⁻⁶ cm/s.
For `OC[C@@H](O)[C@@H](O)[C@H](O)[C@H](O)CO` [mannitol, reference compound], the “Mass balance mean A to B” value with Caco-2 cell monolayers [14] (human, Caco-2, 90 min, pH 7.4) is listed as 96%. In “in vitro”, this compound showed a Papp A→B at 90 min, 50 μM of 0.514 ×10⁻⁶ cm/s.
For the compound `CC(C)NCC(O)COc1cccc2ccccc12` (stereo not shown) [propranolol, reference compound], the “Mass balance mean A to B” value with Caco-2 cell monolayers [14] (human, Caco-2, 90 min, pH 7.4) was found to be 71%. Also, the Papp A→B at 90 min, 50 μM in “in vitro” was 14.2 ×10⁻⁶ cm/s. Further, in the series with Caco-2 cell monolayers [28], the “Papp historical range at the testing facility (mean ± SD)” value is 1.5×10^−5±4.2×10^−5.

Values taken from patent US20170044121A1, “TETRA-O-SUBSTITUTED BUTANE-BRIDGE MODIFIED NDGA DERIVATIVES, THEIR SYNTHESIS AND PHARMAECUTICAL USE” (Erimos Pharmaceuticals LLC, priority 2006, published 2017).
